Test results: PMC11466185, “Mechanisms and efficacy of small molecule latency-promoting agents to inhibit HIV reactivation ex vivo” (JCI Insight, 2024)
Read-outs that look alike come from different tables or passages of the source.

Experiments:
[1] = system: PolyA HIV RNA in the supernatant; test: Supernatant viral RNA (polyadenylated HIV RNA, RT-ddPCR) at day 6 after T cell activation; type: cell-based; details: for Polyadenylated HIV RNA in supernatant (Fig 5, Fig S6B): study participant 150b; for Polyadenylated HIV RNA in supernatant (Fig 5, Fig S6B) / Polyadenylated HIV RNA in supernatant (Fig 5): day 6
Protocol: PBMCs were cultured in the presence of individual drugs in DMSO or DMSO alone as control, activated (anti-CD3/CD28), and assessed for levels of PolyA HIV RNA in the supernatant at day 6.
Each drug was tested in PBMCs from 6 ART-suppressed study participants (except for triptolide, n = 5). PBMCs were aliquoted into wells at 6 × 10^6 cells/well. After activation, the cells were cultured with antiretrovirals in the presence of individual drugs in DMSO or DMSO alone as control. All conditions were tested in the presence of CD3/28 T cell–activating beads, except for the unactivated DMSO condition. After 6 days, RNA was extracted from the culture supernatant. Polyadenylated HIV RNA in the supernatant was quantified by RT-ddPCR, expressed as copies/mL, and then normalized to the levels of the activated DMSO (% of activated DMSO). Medians and IQR are presented, as well as the individual values per study participant in different colors. Comparisons were performed using Wilcoxon’s signed-rank test.
For quantification of cell-associated HIV transcripts, PBMCs were harvested either after 24 hours or after 6 days. The cell viabilities were measured by trypan blue staining; then the cells were pelleted by centrifuging at 300g for 6 minutes and stored at –80°C. For quantification of virion-associated HIV RNA, cell culture supernatant was collected from 6 × 10^6 PBMCs that were treated and activated for 6 days as described above. Residual cells and cellular debris were subsequently removed from the supernatant by differential centrifugation (300g for 6 minutes, then 20,000g for 10 minutes), and the supernatant was stored at –80°C.
Total cellular DNA and RNA were extracted in parallel using Trireagent (Molecular Research Center) according to the manufacturer’s instructions, except for study participants 2147 and 2461 (Figure 4), for whom DNA and RNA were extracted using the QIAGEN AllPrep DNA/RNA/miRNA Universal Kit with on-column DNase I treatment of the RNA and the manufacturer’s modification to enhance recovery of short transcripts. RNA and DNA concentrations were measured using UV spectrophotometry (NanoDrop One, Thermo Fisher Scientific). Total initiated HIV (TAR) transcripts were quantified by a 3-step polyadenylation RT-ddPCR as described previously ([8], [84]). HIV 5′ elongated (LLTR), midtranscribed (Pol), completed (PolyA), and multiply spliced (TatRev) transcripts were quantified by a 2-step RT-ddPCR as previously described ([8]). The levels of each HIV transcript were normalized to 1 μg of total cellular RNA and expressed as a percentage of the (activated) DMSO control. To quantify virion-associated RNA in supernatant, RNA was extracted from 400 μL supernatant using Trireagent-LS (Molecular Research Center) according to the manufacturer’s instructions. Levels of U3-polyadenylated HIV RNA were measured in the supernatant by RT-ddPCR, normalized to copies/mL, and expressed as a percentage of the activated DMSO. For measuring the HIV infection frequency at day 6, the HIV DNA U3-U5 LTR region was quantified by using ddPCR as described previously ([8]). HIV DNA copies were normalized to cell numbers according to the mass of DNA input per well (calculated from the DNA concentration and input volume) ([85]).

PBMCs = test: Total number of live cells (proliferation) by trypan blue staining at day 6; type: cell-based, human; details: day 6; Figure 6A
Protocol: Some of our candidate LPAs can block the effects of T cell activation, which could affect T cell proliferation. Therefore, we evaluated the extent to which variations in the level of infected cells may contribute to reductions in different HIV RNA transcripts. We measured the total number of viable cells (as a measure of proliferation) and the conserved U3-U5 LTR HIV DNA region (as a measure of total infection frequency) at day 6.
(A) After 6 days, the total number of live cells was measured by trypan blue staining and then normalized to the levels of the activated DMSO (% of activated DMSO). All conditions were tested in the presence of CD3^+/CD28^+ T cell–activating beads, except for the unactivated DMSO condition. Bars indicate medians, and different colors indicate individual study participants. Comparisons were performed using Wilcoxon’s signed-rank test. (B) Total cellular DNA was extracted, and the levels of U3-U5 HIV DNA were measured to quantify infection frequency at 6 days. HIV DNA levels were normalized to copies per 10^6 cells using the input of cellular DNA (assuming 1 μg of total DNA corresponds to 160,000 cells) and then normalized to the activated DMSO control (% of activated DMSO). Bars indicate medians, and different colors indicate individual study participants.

[2] = system: HIV transcripts (PolyA, TatRev); test: Dose-response curves of LPAs: polyadenylated and multiply spliced HIV transcripts 24 hours after activation; type: cell-based; details: for IC50: Human immunodeficiency virus 1, PBMC, 24 h, PBMCs from 1 participant per drug; for MS Tat-Rev (dose-response) / PolyA (dose-response): 24 hours, 1 participant per drug
Protocol: The IC50 was determined based on the reduction in completed (PolyA) as well as multiply spliced (TatRev) HIV transcripts relative to activated DMSO (Table 1).
Figure 2 Dose-response curves of LPAs. Dose-response curves for each drug were generated in PBMCs from 1 ART-suppressed study participant per drug. PBMCs were aliquoted into wells at 6 × 10^6 cells/well, activated, and cultured with antiretrovirals in the presence of DMSO alone (no drug) or varying concentrations of individual drugs in DMSO. After 24 hours, the levels of polyadenylated and multiply spliced HIV transcripts were quantified by RT-ddPCR, normalized to 1 μg of total cellular RNA, and expressed as a percentage of the activated DMSO control (% of activated DMSO).

[3] = reduction in PolyA HIV transcripts relative to activated DMSO, read-out: Completed (PolyA) IC50
[4] = reduction in TatRev HIV transcripts relative to activated DMSO, read-out: Multiply spliced (TatRev) IC50

| Structure (SMILES) | Polyadenylated HIV RNA in supernatant (Fig 5, Fig S6B) [1] | Polyadenylated HIV RNA in supernatant (Fig 5) ([1]; study participant 163) | Polyadenylated HIV RNA in supernatant (Fig 5) ([1]; study participant 2027) | Polyadenylated HIV RNA in supernatant (Fig 5) ([1]; study participant 2147b) | Polyadenylated HIV RNA in supernatant (Fig 5) ([1]; study participant 2161) | Polyadenylated HIV RNA in supernatant (Fig 5) ([1]; study participant 2256) | Polyadenylated HIV RNA in supernatant (Fig 5) ([1]; study participant 2747) | Total live cell numbers (proliferation) compared with activated DMSO (in words) (PBMCs) | IC50 [2, 3] [nM] | IC50 [2, 4] [nM] | MS Tat-Rev (dose-response) ([2]; dose 10 µM) | PolyA (dose-response) ([2]; dose 10 µM) | Polyadenylated HIV RNA in supernatant (Fig 5) ([1]; study participant 156) | PolyA (dose-response) ([2]; dose 1 nM) | PolyA (dose-response) ([2]; dose 4 nM) | PolyA (dose-response) ([2]; dose 8 nM) | Polyadenylated HIV RNA in supernatant (Fig 5) ([1]; study participant 150a) | Polyadenylated HIV RNA in supernatant (Fig 5) ([1]; study participant 2750) | further results |
| --- | --- | --- | --- | --- | --- | --- | --- | --- | --- | --- | --- | --- | --- | --- | --- | --- | --- | --- | --- |
| O=c1c(O)c(-c2ccc(O)c(O)c2)oc2cc(O)cc(O)c12 [quercetin] | 315.15 % of activated DMSO | 85.4 % of activated DMSO | 20.42 % of activated DMSO | 8.6 % of activated DMSO | 4.65 % of activated DMSO | 134.41 % of activated DMSO | 9.09 % of activated DMSO | did not change proliferation rates | 1410 | 1130 | 14.99 % of activated DMSO | 19.46 % of activated DMSO |  |  |  |  |  |  | MS Tat-Rev (dose-response) ([2]; dose 5 µM): 15.52 % of activated DMSO; PolyA (dose-response) ([2]; dose 5 µM): 17.57 % of activated DMSO |
| CCc1cnn2c(NCc3ccc[n+]([O-])c3)cc(N3CCCC[C@H]3CCO)nc12 [dinaciclib] | 11.52 % of activated DMSO | 133.94 % of activated DMSO | 0 % of activated DMSO | 0 % of activated DMSO | 4.65 % of activated DMSO |  | 23.64 % of activated DMSO |  |  |  |  |  | 0 % of activated DMSO | 39.51 % of activated DMSO | 6.37 % of activated DMSO | 1.62 % of activated DMSO |  |  |  |
| N#CC[C@H](C1CCCC1)n1cc(-c2ncnc3[nH]ccc23)cn1 [ruxolitinib] |  | 0.53 % of activated DMSO | 0 % of activated DMSO | 0 % of activated DMSO | 5.81 % of activated DMSO |  | 0 % of activated DMSO | significantly lower | 270 | 260 | 4.34 % of activated DMSO | 4.66 % of activated DMSO | 0 % of activated DMSO |  |  |  | 6.55 % of activated DMSO | 0 % of activated DMSO | MS Tat-Rev (dose-response) ([2]; dose 0.4 µM): 41.24 % of activated DMSO; PolyA (dose-response) ([2]; dose 0.4 µM): 33.83 % of activated DMSO; MS Tat-Rev (dose-response) ([2]; dose 1 µM): 15.99 % of activated DMSO; PolyA (dose-response) ([2]; dose 1 µM): 29.83 % of activated DMSO; MS Tat-Rev (dose-response) ([2]; dose 4 µM): 8.19 % of activated DMSO; PolyA (dose-response) ([2]; dose 4 µM): 7.04 % of activated DMSO |
| CC(=O)N[C@@H]1CCC[C@H](C(=O)Nc2cc(-c3cnn4c3CC(C)(C)C4)c(Cl)cn2)C1 [AZD4573] |  | 90.51 % of activated DMSO | 0 % of activated DMSO | 0.7 % of activated DMSO | 0 % of activated DMSO |  | 17.73 % of activated DMSO |  | 0.28 | 0.23 |  |  | 3.19 % of activated DMSO | 20.96 % of activated DMSO |  | 5.23 % of activated DMSO | 27.84 % of activated DMSO | 0 % of activated DMSO | Viral RNA in supernatant (PolyA HIV RNA), median relative to activated DMSO ([1]; day 6 after anti-CD3/CD28 activation, Figure 5): 1.9%; MS Tat-Rev (dose-response) ([2]; dose 1 nM): 18.92 % of activated DMSO; MS Tat-Rev (dose-response) ([2]; dose 8 nM): 1.11 % of activated DMSO; MS Tat-Rev (dose-response) ([2]; dose 20 nM): 0.18 % of activated DMSO; PolyA (dose-response) ([2]; dose 20 nM): 4.94 % of activated DMSO |
| CN1CC[C@H](c2c(O)cc(O)c3c(=O)cc(-c4ccccc4Cl)oc23)[C@H](O)C1 [alvocidib] | 81.21 % of activated DMSO |  | 504.5 % of activated DMSO | 0 % of activated DMSO | 41.86 % of activated DMSO | 81.72 % of activated DMSO |  |  | 3.41 | 4.23 |  |  |  |  | 52.96 % of activated DMSO |  |  |  | Polyadenylated HIV RNA in supernatant (Fig 5) ([1]; study participant 5557): 155.63 % of activated DMSO; MS Tat-Rev (dose-response) ([2]; dose 4 nM): 60.15 % of activated DMSO; MS Tat-Rev (dose-response) ([2]; dose 10 nM): 21.37 % of activated DMSO; PolyA (dose-response) ([2]; dose 10 nM): 17.13 % of activated DMSO; MS Tat-Rev (dose-response) ([2]; dose 40 nM): 5.52 % of activated DMSO; PolyA (dose-response) ([2]; dose 40 nM): 5.99 % of activated DMSO; MS Tat-Rev (dose-response) ([2]; dose 100 nM): 1.88 % of activated DMSO; PolyA (dose-response) ([2]; dose 100 nM): 3.2 % of activated DMSO |
